Test results: PubChem BioAssay AID1963854 (Molecular Pharmacology Branch, DTP, NCI, 2024)

Test system: 186277-243-T-J2-PDC complex spheroid viability
Assay: Anticancer human tumor 186277-243-T-J2-PDC patient-derived colon adenocarcinoma cell line growth inhibition [POLQ]
Settings: for IC50: curve of first compound; for viability, T/C: stronger effect = lower value
Procedure: Multicellular complex tumor spheroid response to Polymerase (POL) inhibitors (novobiocin, ART-558, RP6685) in combination with a variety of drugs and investigational agents in selected tumor cell lines
The POL inhibitors (novobiocin, ART-558, and RP6685) were evaluated both individually and in combination with standard of care and investigational anticancer small molecules within a complex spheroid model of solid tumors. . Complex spheroids include a stromal component modeled by human endothelial cells (HUVEC) and fibroblasts modeled by human mesenchymal stem cells (MSCs). The concentration ranges selected for each drug and investigational agent were based upon clinically achievable concentrations if the clinical Cmax of the agent was known.
Compounds. The drugs and investigational agents: novobiocin (NSC847541), ART-558 (NSC835418), RP-6685 (NSC848927), peposertib (NSC802822), ceralasertib (NSC780249), elimusertib (NSC800525), camonsertib (NSC841442), AZD-1390 (NSC803789), olaparib (NSC753686), talazoparib (NSC767125), rucaparib (NSC756644), sotorasib (NSC818433), MRTX-1133 (NSC836407), SN-38 (NSC673596), topotecan (NSC609699), epotoside (NSC141540), doxorubicin (NSC123127), gemcitabine (NSC613327), 5-fluorouracil (NSC19893), paclitaxel (NSC125973), vemurafenib (NSC761431), MSA-2 (NSC828583), SN-011 (NSC837082), adavosertib (NSC754352), prexasertib (NSC758257), carboplatin (NSC241240) and oxaliplatin (NSC266046), were obtained from the National Cancer Institute (NCI) Developmental Therapeutics Program Chemical Repository (21). The FDA-approved anticancer drug set is available from the Developmental Therapeutics Program at https://dtp.cancer.gov/organization/dscb/obtaining/. […] The stock solutions were prepared in dimethyl sulfoxide (DMSO, Sigma-Aldrich, St. Louis, MO, cat. D2650), except for the platinum compounds which were prepared in saline (Quality Biological, Gaithersburg, MD, cat. 114-055-101), at 800-fold the tested concentration and stored at -70 degrees C prior to their use. All drugs and investigational agents were tested over a range starting from a high concentration at or near the clinical Cmax and decreasing in half-log increments. If the clinical Cmax for an agent had not been determined, the highest concentration tested was 10 microM, except for SN-38, which was tested at a high concentration of 1 microM.
Cell Culture. All cells were maintained in an incubator at 37 degrees C and 5% CO2 with 95% humidity. The PDC lines were cultured according to standard operating procedures established by the NCI PDMR (https://pdmr.cancer.gov). Table 3 of the manuscript, lists the cell lines along with the number of the three cell types plated to form the mct-spheroids and media for tumor cell growth. After thawing, all PDC lines, except 997537-175-T-J1-PDC and 415267-285-R-J2-PDC, were cultured in Matrigel-coated flasks prepared with a working solution of 1X Ham's F-12 nutrient mix, without supplementation (Thermo Fisher Scientific, cat. 11765054), 100 U/mL penicillin-streptomycin (Thermo Fisher Scientific, cat. 15140122), and 2.5% Matrigel (Corning Inc., Corning, NY, cat. 354248) for the first three passages. The two PDC lines 997537-175-T-J1-PDC and 415267-285-R-J2-PDC were cultured on uncoated flasks. The 857933-349-R-J2-PDC line was cultured in 6C/Colon 1B media containing advanced DMEM/F-12 (Thermo Fisher Scientific, cat. 12634028), 10 mM HEPES (Thermo Fisher Scientific, cat. 15630080), 1X GlutaMAX supplement (Thermo Fisher Scientific, cat. 35050061), 0.1 mg/mL primocin (InvivoGen, San Diego, CA, cat. ant-pm-2), 10% defined fetal bovine serum, heat inactivated (HyClone Laboratories Inc., Logan, UT, cat. SH30070.03HI), 50% L-WRN conditioned media (ATCC, cat. CRL-3276), 1.25 mM N-Acetyl-L-cysteine (Sigma-Aldrich, cat. A9165), 10 mM nicotinamide (Sigma-Aldrich, cat. N0636), 1X B-27 supplement (Thermo Fisher Scientific, cat. 17504044), 1X N-2 supplement (Thermo Fisher Scientific, cat. […]

[1] = second compound 0.0316 µM, first compound 0.0316 µM
[2] = second compound 0.0316 µM, first compound 0.1 µM
[3] = second compound 0.0316 µM, first compound 0.316 µM
[4] = second compound 0.0316 µM, first compound 1 µM
[5] = second compound 0.0316 µM, first compound 3.16 µM
[6] = second compound 0.0316 µM, first compound 10 µM
[7] = second compound 0.1 µM, first compound 0.0316 µM
[8] = second compound 0.1 µM, first compound 0.1 µM
[9] = second compound 0.1 µM, first compound 0.316 µM
[10] = second compound 0.1 µM, first compound 1 µM
[11] = second compound 0.1 µM, first compound 3.16 µM
[12] = second compound 0.1 µM, first compound 10 µM
[13] = second compound 0.316 µM, first compound 0.0316 µM
[14] = second compound 0.316 µM, first compound 0.1 µM
[15] = second compound 0.316 µM, first compound 0.316 µM
[16] = second compound 0.316 µM, first compound 1 µM
[17] = second compound 0.316 µM, first compound 3.16 µM
[18] = second compound 0.316 µM, first compound 10 µM
[19] = second compound 1 µM, first compound 0.0316 µM
[20] = second compound 1 µM, first compound 0.1 µM
[21] = second compound 1 µM, first compound 0.316 µM
[22] = second compound 1 µM, first compound 1 µM
[23] = second compound 1 µM, first compound 3.16 µM
[24] = second compound 1 µM, first compound 10 µM
[25] = second compound 3.16 µM, first compound 0.0316 µM
[26] = second compound 3.16 µM, first compound 0.1 µM
[27] = second compound 3.16 µM, first compound 0.316 µM
[28] = second compound 3.16 µM, first compound 1 µM
[29] = second compound 3.16 µM, first compound 3.16 µM
[30] = second compound 3.16 µM, first compound 10 µM
[31] = second compound 10 µM, first compound 0.0316 µM
[32] = second compound 10 µM, first compound 0.1 µM
[33] = second compound 10 µM, first compound 0.316 µM
[34] = second compound 10 µM, first compound 1 µM
[35] = second compound 10 µM, first compound 3.16 µM
[36] = second compound 10 µM, first compound 10 µM
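Further: spheroids exposed to compounds for seven days.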
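Wherever viability, T/C is given: 100% = DMSO vehicle control viability.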

## CC1COCCN1c1cc(-c2ccnn2C)c2ccnc(-c3ccn[nH]3)c2n1 (centres undefined) + COC1C(OC(N)=O)C(O)C(Oc2ccc3c(O)c(NC(=O)c4ccc(O)c(CC=C(C)C)c4)c(=O)oc3c2C)OC1(C)C
Second compound 0.0316 µM
  IC50: 42.6 nM
Second compound 0.1 µM
  IC50: 45.8 nM
Second compound 0.316 µM
  IC50: 45.6 nM
Second compound 1 µM
  IC50: 47.4 nM
Second compound 3.16 µM
  IC50: 42.8 nM
Second compound 10 µM
  IC50: 51.2 nM
[1]
  viability, T/C: 63.9%
[2]
  viability, T/C: 10.3%
[3]
  viability, T/C: 4.76%
[4]
  viability, T/C: 4.28%
[5]
  viability, T/C: 3.3%
[6]
  viability, T/C: 3.81%
[7]
  viability, T/C: 68.6%
[8]
  viability, T/C: 10.9%
[9]
  viability, T/C: 4.88%
[10]
  viability, T/C: 3.51%
[11]
  viability, T/C: 2.82%
[12]
  viability, T/C: 3.8%
[13]
  viability, T/C: 67.6%
[14]
  viability, T/C: 12.2%
[15]
  viability, T/C: 4.58%
[16]
  viability, T/C: 3.36%
[17]
  viability, T/C: 2.79%
[18]
  viability, T/C: 3.64%
[19]
  viability, T/C: 71%
[20]
  viability, T/C: 11.4%
[21]
  viability, T/C: 5.31%
[22]
  viability, T/C: 3.57%
[23]
  viability, T/C: 3.29%
[24]
  viability, T/C: 4.22%
[25]
  viability, T/C: 63.9%
[26]
  viability, T/C: 11.1%
[27]
  viability, T/C: 4.98%
[28]
  viability, T/C: 3.47%
[29]
  viability, T/C: 4.1%
[30]
  viability, T/C: 3.47%
[31]
  viability, T/C: 77.8%
[32]
  viability, T/C: 11.6%
[33]
  viability, T/C: 5.41%
[34]
  viability, T/C: 3.59%
[35]
  viability, T/C: 4.37%
[36]
  viability, T/C: 3.76%

## CCc1cc2c(N3CCc4c(cc(Cn5ccnc5)cc4-c4cn(C)nc4C(F)(F)F)C3=O)cc(C)nc2c(OC)n1 + Cc1cccc(N(C)C(=O)C2C(O)CCN2c2nc(C)cc(C(F)(F)F)c2C#N)c1
Second compound 0.0316 µM
  IC50: > 10000 nM
Second compound 0.1 µM
  IC50: > 10000 nM
Second compound 0.316 µM
  IC50: > 10000 nM
Second compound 1 µM
  IC50: > 10000 nM
Second compound 3.16 µM
  IC50: > 10000 nM
Second compound 10 µM
  IC50: > 10000 nM
[1]
  viability, T/C: 111%
[2]
  viability, T/C: 86.9%
[3]
  viability, T/C: 98.8%
[4]
  viability, T/C: 97.1%
[5]
  viability, T/C: 93.9%
[6]
  viability, T/C: 95.2%
[7]
  viability, T/C: 90.8%
[8]
  viability, T/C: 91.3%
[9]
  viability, T/C: 96.8%
[10]
  viability, T/C: 99.4%
[11]
  viability, T/C: 112%
[12]
  viability, T/C: 83.2%
[13]
  viability, T/C: 97%
[14]
  viability, T/C: 101%
[15]
  viability, T/C: 101%
[16]
  viability, T/C: 114%
[17]
  viability, T/C: 116%
[18]
  viability, T/C: 92.5%
[19]
  viability, T/C: 99.4%
[20]
  viability, T/C: 96.9%
[21]
  viability, T/C: 107%
[22]
  viability, T/C: 111%
[23]
  viability, T/C: 115%
[24]
  viability, T/C: 83.4%
[25]
  viability, T/C: 108%
[26]
  viability, T/C: 104%
[27]
  viability, T/C: 88.6%
[28]
  viability, T/C: 113%
[29]
  viability, T/C: 94.1%
[30]
  viability, T/C: 92.9%
[31]
  viability, T/C: 101%
[32]
  viability, T/C: 110%
[33]
  viability, T/C: 107%
[34]
  viability, T/C: 103%
[35]
  viability, T/C: 104%
[36]
  viability, T/C: 97.9%
